The test system of data set [1] is Aβ42. Nature of the data set: Screening for γ-secretase-modulating activity: Aβ42 in supernatant of SKNBE2 cells carrying APP 695-wild type (Alphalisa). The data set is classed as cell-based. Particulars: Homo sapiens, overnight incubation, cell supernatant. As for the experimental part:
(§1) Screening was carried out using SKNBE2 cells carrying the APP 695-wild type, grown in Dulbecco's Modified Eagle's Medium/Nutrient mixture F-12 (DMEM/NUT-mix F-12) (HAM) provided by Invitrogen (cat no. 10371-029) containing 5% Serum/Fe supplemented with 1% non-essential amino acids, 1-glutamine 2 mM, Hepes 15 mM, penicillin 50 U/ml (units/ml) en streptomycin 50 µg/ml. Cells were grown to near confluency.
(§2) The screening was performed using a modification of the assay as described in Citron et al (1997) Nature Medicine 3: 67. Briefly, cells were plated in a 384-well plate at 10^4 cells/well in Ultraculture (Lonza, BE12-725F) supplemented with 1% glutamine (Invitrogen, 25030-024), 1% non-essential amino acid (NEAA), penicillin 50 U/ml en streptomycin […] in the presence of test compound at different test concentrations. The cell/compound mixture was incubated overnight at 37° C., 5% CO2. The next day the media were assayed by two sandwich immuno-assays, for Aβ42 and Aβtotal.
(§3) Aβtotal and Aβ42 concentrations were quantified in the cell supernatant using the Aphalisa technology (Perkin Elmer). Alphalisa is a sandwich assay using biotinylated antibody attached to streptavidin coated donorbeads and antibody conjugated to acceptor beads. In the presence of antigen, the beads come into close proximity. The excitation of the donor beads provokes the release of singlet oxygen molecules that trigger a cascade of energy transfer in the acceptor beads, resulting in light emission.
(§4) To quantify the amount of Aβ42 in the cell supernatant, monoclonal antibody specific to the C-terminus of Aβ42 (JRF/cAB42/26) was coupled to the receptor beads and biotinylated antibody specific to the N-terminus of Aβ (JRF/ABN/25) was used to react with the donor beads. T quantify the amount of Aβtotal in the cell supernatant, monoclonal antibody specifc to the N-terminus of Aβ (JRF/AβN/25) was coupled to the receptor beads and biotinylated antibody specific to the mid region of Aβ (biotinylated 4G8) was used to react with the donor beads.
(§5) To obtain the values reported in Table 3, the data are calculated as percentage of the maximum amount of amyloid Beta 42 measured in the absence of the test compound. The sigmoidal dose response curves were analyzed using non-linear regression analysis with percentage of the control plotted against the log concentration of the compound. A 4-parameter equation was used to determine the IC50.
A general note: Bead proximity is the source of the signal in Alpha formats.

Data set [2] deals with Aβtotal. Nature of the data set: Screening for γ-secretase-modulating activity: Aβtotal in supernatant of SKNBE2 cells carrying APP 695-wild type (Alphalisa). It counts as cell-based. As to conditions: Homo sapiens, overnight incubation, cell supernatant. As for the experimental part: as §1, §2, §3, §4, §5
Data set [3] deals with Aβ42. Briefly: In vivo efficacy: brain soluble Aβ42 lowering in non-transgenic animals (ELISA). On the set-up: species or system mouse. As to conditions: dose 30 mg/kg oral dosing; brain soluble fraction, 4 h after dose; untreated animals (Ctrl) set at 100. The source says:
(§6) To determine whether acute administration of an Aβ42 lowering agent would reduce Aβ42 levels in vivo, non-transgenic rodents, e.g. mice or rats were used. Animals treated with the Aβ42 lowering agent were examined and compared to those untreated or treated with vehicle and brain levels of soluble Aβ42 and total Aβ were quantitated by standard techniques, for example, using ELISA. Treatment periods varied from hours (h) to days and were adjusted based on the results of the Aβ42 lowering once a time course of onset of effect could be established.
(§7) A typical protocol for measuring Aβ42 lowering in vivo is shown but it is only one of many variations that could be used to optimize the levels of detectable A3. For example, Aβ42 lowering compounds were formulated in 20% of Captisol® (a sulfobutyl ether of β-cyclodextrin) in water or 20% hydroxypropyl 0 cyclodextrin. The Aβ42 lowering agents were administered as a single oral dose or by any acceptable route of administration to overnight fasted animals. After 4 h, the animals were sacrificed and Aβ42 levels were analysed.
(§8) Blood was collected by decapitation and exsanguinations in EDTA-treated collection tubes. […] The left hemisphere was stored at −18° C. for quantitative analysis of test compound levels. […]
(§9) Mouse brains from non-transgenic animals were resuspended in 8 volumes of 0.4% DEA (diethylamine)/50 mM NaCl containing protease inhibitors (Roche-11873580001 or 04693159001) per gram of tissue, e.g. for 0.158 g brain, add 1.264 ml of 0.4% DEA. […] Nine parts of supernatant were neutralized with 1 part 0.5 M Tris-HCl pH 6.8 and used to quantify Aβtotal and Aβ42.
(§10) To quantify the amount of Aβtotal and Aβ42 in the soluble fraction of the brain homogenates, Enzyme-Linked-Immunosorbent-Assays were used. […] Following this incubation and subsequent wash steps the ELISA for Aβ42 quantification was finished by addition of Quanta Blu fluorogenic peroxidase substrate according to the manufacturer's instructions (Pierce Corp., Rockford, Il). A reading was performed after 10 to 15 min (excitation 320 nm/emission 420 nm). […]
A general note: ELISA stands for enzyme-linked immunosorbent assay.

Data set [4] deals with Aβtotal. Briefly: In vivo efficacy: brain soluble Aβtotal in non-transgenic animals (ELISA). As to conditions: dose 30 mg/kg oral dosing; brain soluble fraction, 4 h after dose; untreated animals (Ctrl) set at 100. On the set-up: species or system mouse.
Source text: as §6, §7, §8, §9, §10

The term IC50 denotes the concentration needed to halve the response being measured. In general, melting point refers to the temperature, or range, at which the solid turns liquid.

Structures can show the parent of a compound that is named as a salt. A value given as a limit tells only on which side of the number the result lay.

With `COc1ccc(N2CCN(c3nc(Nc4ccccc4C(F)(F)F)n(C)n3)CC2(C)C)cc1` [Compound 2, 3-[4-(4-methoxyphenyl)-3,3-dimethyl-1-piperazinyl]-1-methyl-N-[2-(trifluoromethyl)phenyl]-1H-1,2,4-triazol-5-amine], the IC50 in the data set on Aβ42 [1] is 0.09 µM; with Aβtotal [2], over 10 µM.
Regarding `COc1ccc(N2CCN(c3nc(Nc4cccc(F)c4C(F)(F)F)n(C)n3)CC2(C)C)cc1` [Compound 3, N-[3-fluoro-2-(trifluoromethyl)phenyl]-3-[4-(4-methoxyphenyl)-3,3-dimethyl-1-piperazinyl]-1-methyl-1H-1,2,4-triazol-5-amine], the IC50 in the data set on Aβ42 [1] was 0.05 µM; in the data set on Aβtotal [2], over 10 µM.
Consider `COc1ccc(N2CCN(c3nc(Nc4cccc(OC(F)(F)F)c4)n(C)n3)CC2(C)C)cc1` [Compound 4, 3-[4-(4-methoxyphenyl)-3,3-dimethyl-1-piperazinyl]-1-methyl-N-[3-(trifluoromethoxy)phenyl]-1H-1,2,4-triazol-5-amine.HCl], for which the results for the IC50 in the data set with Aβ42 [1] and in the data set on Aβtotal [2] were 0.07 µM and over 10 µM, respectively.
Take `COc1ccc(N2CCN(c3nc(Nc4cc(F)cc(C(F)(F)F)c4)n(C)n3)CC2(C)C)cc1` [Compound 5, N-[3-fluoro-5-(trifluoromethyl)phenyl]-3-[4-(4-methoxyphenyl)-3,3-dimethyl-1-piperazinyl]-1-methyl-1H-1,2,4-triazol-5-amine.0.8HCl]: the values for the half-maximal inhibitory concentration (IC50) with Aβ42 [1] and in the data set on Aβtotal [2] were 0.14 µM and over 10 µM, respectively.
Take `COc1ccc(N2CCN(c3nc(Nc4ccc(F)cc4C)n(C)n3)CC2(C)C)cc1` [Compound 6, N-(4-fluoro-2-methylphenyl)-3-[4-(4-methoxyphenyl)-3,3-dimethyl-1-piperazinyl]-1-methyl-1H-1,2,4-triazol-5-amine.1.2HCl. 1.5H2O]: the IC50 was 0.05 µM in the data set with Aβ42 [1] and over 10 µM with Aβtotal [2]. The “Aβ42 (% vs Ctrl)_Mean” value in the data set with Aβ42 [3] is given as 45 % vs Ctrl. The “Aβtotal (% vs Ctrl)_Mean” value in the data set with Aβtotal [4] was 109 % vs Ctrl.
`Cn1nc(N2CCC(Oc3ccncc3)CC2)nc1Nc1cc(C(F)(F)F)ccc1F` [Compound 7, N-[2-fluoro-5-(trifluoromethyl)phenyl]-1-methyl-3-[4-(4-pyridinyloxy)-1-piperidinyl]-1H-1,2,4-triazol-5-amine]: the IC50 in the data set with Aβ42 [1] was 0.72 µM; with Aβtotal [2] it was over 10 µM.
In turn, `Cc1cc(OC2CCN(c3nc(Nc4cc(C(F)(F)F)ccc4F)n(C)n3)CC2)ncn1` [Compound 8, N-[2-fluoro-5-(trifluoromethyl)phenyl]-1-methyl-3-[4-[(6-methyl-4-pyrimidinyl)oxy]-1-piperidinyl]-1H-1,2,4-triazol-5-amine] yielded a melting point of 158 °C. Further, the IC50 in the data set with Aβ42 [1] stood at 0.95 µM. In the data set with Aβtotal [2], this molecule returned an IC50 of over 10 µM.
On the same counts, the results for `COc1ccc(N2CCN(c3nc(Nc4cc(C(F)(F)F)ccc4F)n(C)n3)CC2)cc1` [Compound 9, N-[2-fluoro-5-(trifluoromethyl)phenyl]-3-[4-(4-methoxyphenyl)-1-piperazinyl]-1-methyl-1H-1,2,4-triazol-5-amine] are 145.4 °C, 0.56 µM and over 10 µM.
`Cn1nc(N2CCN(c3ccncc3)CC2)nc1Nc1cc(C(F)(F)F)ccc1F` [Compound 10, N-[2-fluoro-5-(trifluoromethyl)phenyl]-1-methyl-3-[4-(4-pyridinyl)-1-piperazinyl]-1H-1,2,4-triazol-5-amine] yielded a melting point of 261.8 °C. In the data set with Aβ42 [1], this molecule showed an IC50 of 4.9 µM. The molecule further showed an IC50 in the data set with Aβtotal [2] of over 10 µM.
`Cc1cc(CC2CCN(c3nc(Nc4cc(C(F)(F)F)ccc4F)n(C)n3)CC2)ccn1` [Compound 11, N-[2-fluoro-5-(trifluoromethyl)phenyl]-1-methyl-3-[4-[(2-methyl-4-pyridinyl)methyl]-1-piperidinyl]-1H-1,2,4-triazol-5-amine.HCl.H2O]: the IC50 with Aβ42 [1] is 6.92 µM; in the data set with Aβtotal [2] it was over 10 µM.
`Cn1nc(N2CCN(Cc3ccncc3)CC2)nc1Nc1cc(C(F)(F)F)ccc1F` [Compound 12, N-[2-fluoro-5-(trifluoromethyl)phenyl]-1-methyl-3-[4-(4-pyridinylmethyl)-1-piperazinyl]-1H-1,2,4-triazol-5-amine]: the melting point is 161.4 °C. For the same molecule, the IC50 in the data set on Aβ42 [1] is over 10 µM. Also, the IC50 in the data set on Aβtotal [2] is over 10 µM.
Regarding `COc1ccc(N2CCN(c3nc(Nc4cc(C(F)(F)F)ccc4F)n(C)n3)CC2(C)C)cc1` [Compound 14, N-[2-fluoro-5-(trifluoromethyl)phenyl]-3-[4-(4-methoxyphenyl)-3,3-dimethyl-1-piperazinyl]-1-methyl-1H-1,2,4-triazol-5-amine], the IC50 was 0.11 µM in the data set with Aβ42 [1] and over 10 µM in the data set on Aβtotal [2]. Moreover, the “Aβ42 (% vs Ctrl)_Mean” value in the data set with Aβ42 [3] is on record as 78 % vs Ctrl. In the data set with Aβtotal [4], the “Aβtotal (% vs Ctrl)_Mean” value stood at 111 % vs Ctrl.
In the case of `Cc1cc(OC2CCN(c3nc(Nc4cc(C(F)(F)F)ccc4F)n(C)n3)CC2)ccn1` [Compound 15, N-[2-fluoro-5-(trifluoromethyl)phenyl]-1-methyl-3-[4-[(2-methyl-4-pyridinyl)oxy]-1-piperidinyl]-1H-1,2,4-triazol-5-amine], the melting point came out at 177.4 °C. This molecule also yielded an IC50 in the data set on Aβ42 [1] of 0.25 µM. For the same molecule, the IC50 in the data set on Aβtotal [2] was over 10 µM.
`COc1ccc(N2CCN(c3nc(-c4ccc(F)cc4)n(C)n3)CC2)cc1` [Compound 16, 1-[5-(4-fluorophenyl)-1-methyl-1H-1,2,4-triazol-3-yl]-4-(4-methoxyphenyl)-piperazine] returned a melting point of 191.6 °C. Further, the IC50 in the data set with Aβ42 [1] turned out to be 4.07 µM. In the data set with Aβtotal [2], the IC50 was over 10 µM.

The values above are taken from patent US8987276B2, “Substituted triazolyl piperazine and triazolyl piperidine derivatives as gamma secretase modulators” (Janssen Pharmaceuticals, Inc., priority 2011, dated 2015).
